{
  "source": "paper PMC13109691",
  "about": "(Environmental and Molecular Mutagenesis, 2026)",
  "origin": "cited, not measured here",
  "settings": "source not stated",
  "data": [
    {"smiles": "COc1ccc(C(=O)c2ccccc2)c(O)c1", "note": "[Oxybenzone]", "values": [
      {"measurement": "Lipophilicity (logP)", "value": 3.79}
    ]}
  ]
}
